Test results taken from PMC12040169 (PLOS Biology, 2025).

test: in vitro; conditions: human, hela cells

| SMILES | viability at 28.5 h, 10 µM |
| --- | --- |
| CNC(=O)Oc1ccc(C2(C)SCCS2)cc1 [CBK023078] | 98.9% |
| CNC(=O)Oc1ccccc1/C=N/N(C)C [CBK023194] | 97.5% |

same assay, conditions: human, hela cells, % viability

| SMILES | viability at 28.5 h, 10 µM |
| --- | --- |
| O=C(NC1(CN2CCCCC2)CCCCC1)NS(=O)(=O)c1ccc(Cl)cc1 [CBK022858] | 94.4% |
| O=C(Nc1ncnc2nc[nH]c12)NC1CCCCC1 [CBK022860] | 97.7% |
| Sc1nnnn1-c1ccccc1 [CBK022881G] | 99.9% |
| O=C(Oc1cccc2cnccc12)c1ccccc1 [CBK022889C] | 105% |
| CC(=O)NC(=O)c1cccc(Br)c1 [CBK022890] | 99.3% |
| FC(F)(F)c1cccc(CC2CSC(=S)N2)c1 (centres unmarked) [CBK022895] | 92.2% |
| Cc1noc(C)c1S(N)(=O)=O [CBK022939] | 84.6% |
| CC1(C)Sc2nc3ccccc3n2C1=O [CBK022971] | 85.4% |
| CC1CN(C(C)N2CC(C)OC2=O)C(=O)O1 (centres unmarked) [CBK022981] | 89.8% |
| COc1cc(/C(CS(C)(=O)=O)=N\O)cc(OC)c1OC [CBK022984] | 83.8% |
| CC(/C(=N/O)c1ccccc1)C(O)c1ccccn1 (centres unmarked) [CBK022993] | 83.3% |
| COc1ccc(C(=O)[C@@H]2CCCC[C@H]2N)cc1 [CBK023040C] | 91.6% |
| OC1(c2ccc(Cl)cc2)CCNCC1 [CBK023044] | 92% |
| O=C(Nc1ccccc1)OCC(CN1CCCCC1)OC(=O)Nc1ccccc1 (centres unmarked) [CBK023067C] | 103% |
| CC1(C)CCCN1C1=NC(=O)C(c2ccccc2)O1 (centres unmarked) [CBK023070] | 104% |
| CCOC(=O)n1c(=O)n2n(c1=O)CC=CC2 [CBK023102] | 93.9% |
| Nc1ccc(Cl)cc1C(O)(CCCN1CCCCC1)c1ccccc1 (centres unmarked) [CBK023107] | 98.1% |
| Cc1cc2nc(NS(C)(=O)=O)n(S(C)(=O)=O)c2cc1C [CBK023112] | 106% |
| COc1ccc(C(=O)C2CCCCC23NCCN3)cc1 (centres unmarked) [CBK023140] | 104% |
| CCN(CC)CCN(CC(=O)Nc1c(C)cccc1Cl)Cc1ccccc1 [CBK023143] | 97.7% |
| Cc1nc2c(c(CCC(=O)O)n1)CCCC2 [CBK023157] | 98.4% |
| CC1CCCN(C(=O)N(C)C)C1 (centres unmarked) [CBK023175] | 118% |
| CCN(CC)CCCOC(=O)C(CCSC)c1ccccc1C (centres unmarked) [CBK023177C] | 91.7% |
| O=C(O)c1ccc(NS(=O)(=O)c2ccccc2)cc1O [CBK023181] | 96.1% |

| SMILES | viability at 28.5 h, 10 µM |
| --- | --- |
| CC1CCCCN1CC(=O)Nc1ccccc1Oc1ccccc1 (centres unmarked) [CBK023182C] | 95.1% |
| O=S(=O)(c1ccccc1)C1CC1 [CBK023184] | 89% |
| Nc1nc2cc3c(cc2[nH]1)OCO3 [CBK023191] | 96.6% |
| CCOC(=O)c1nc(N)c2c(CC#N)nn(C)c2n1 [CBK023254] | 109% |
| NC(=S)Nc1nc(-c2ccc(Br)cc2)cs1 [CBK023259] | 100% |
| O=S(=O)(/N=C/N1CCCC1)c1ccccc1 [CBK023272] | 89.4% |
| CCOC(=O)CNC1CCCCC1 [CBK023276C] | 91% |
| COC(=O)c1c(O)noc1C [CBK023348] | 95.6% |
| Cn1c2ccccc2c2nnc(NCCCCO)nc21 [CBK023366] | 98.8% |
| C(#Cc1ccc(-c2cc[nH]n2)s1)c1ccccc1 [CBK023413] | 118% |
| O=C(CSc1n[nH]c(=S)s1)NCCc1ccccc1 [CBK023445] | 99.2% |
| Nc1nnc(C(F)(F)F)o1 [CBK023457] | 113% |
| CCCN(C(=O)OC(C)(C)C)C1CCc2[nH]c(=O)c(C#N)cc2C1 (centres unmarked) [CBK023470] | 99.7% |
| CCOC(=O)c1c(NC(C)=O)nc2n1CCS2 [CBK023488] | 98.5% |
| Cc1ccc(S(=O)(=O)NC(=O)N2CC3(C)CC2CC(C)(C)C3)cc1 (centres unmarked) [CBK023512] | 110% |
| CCCCC(c1nnn[nH]1)n1nnc2ccccc21 (centres unmarked) [CBK023526] | 93.6% |
| CCCC1CN(C)c2ccccc2C1=O (centres unmarked) [CBK023527] | 87% |
| Cn1c(=O)c2c(-c3ccccc3)onc2n(C)c1=O [CBK023569] | 85% |
| CC(C)(C)C(C#N)C(Oc1ccc(Cl)cc1)n1cncn1 (centres unmarked) [CBK023570] | 90.3% |
| CC1c2ccsc2CCN1S(C)(=O)=O (centres unmarked) [CBK023574] | 86.2% |
| S=c1[nH]nc(-c2ccco2)n1-c1ccc(Cl)cc1 [CBK023586] | 97.8% |
| COC(=O)c1sccc1S(=O)(=O)N1CCN(c2ncnc3scc(C)c23)CC1 [CBK023600] | 94.2% |
| CSCc1nc(CS(=O)(=O)Cc2cccc(C(F)(F)F)c2)no1 [CBK023617] | 87.8% |
| O=c1c(C(F)(F)F)cccn1Cc1ccccc1 [CBK023620] | 107% |

| SMILES | viability at 28.5 h, 10 µM |
| --- | --- |
| CCOC(=O)N1CCN(C(=O)c2oc3ccccc3c2C)CC1 [CBK023696] | 92.4% |
| CCCCN1CCCC1c1c[nH]c2ccccc12 (centres unmarked) [CBK023773G] | 93% |
| Cc1c(C(=O)CCN(C)C2CC=C(c3ccc(F)cc3)CC2)cnn1CCO (centres unmarked) [CBK023799] | 90.4% |
| Cc1nc(Nc2ccc(Cl)cc2)nc(N2CCN(C)CC2)n1 [CBK023855] | 95.4% |
| Cc1nc(NCc2ccc(C(F)(F)F)cc2)nc(N2CCN(C)CC2)n1 [CBK023866] | 112% |
| CN(c1ncccc1C#N)C1CCN(C(=O)OCc2ccccc2)CC1 [CBK023869C] | 84.1% |
| O=C(Cn1c(NCCCO)nc2ccccc21)c1cccs1 [CBK023894B] | 96.5% |
| CCN(CC)CC(=O)Nc1c2c(nc3ccccc13)N(C)CC2 [CBK023917C] | 110% |
| COc1cc2c(cc1OC)C(CCN)=NCC2 [CBK023947C] | 86.6% |
| CN1CCN(CCCCn2nc3n(c2=O)-c2ccccc2OC3(C)C)CC1 [CBK023953C] | 95.8% |
| c1coc(CCC2NCCn3cccc32)c1 (centres unmarked) [CBK023964F] | 95.2% |
| CCCC(=O)c1ccc2c(c1)CC(N(CCC)CCC)C2 (centres unmarked) [CBK023971C] | 95.1% |
| N=C(N)NCCc1c[nH]c2ccccc12 [CBK024011G] | 107% |
| COc1ccc(CCNCC2OCCc3cccc(OC)c32)cc1OC (centres unmarked) [CBK024032C] | 118% |
| COc1cc2c(cc1OC)C(CCN1CCN(c3ccccc3C)CC1)OCC(C)(C)C2 (centres unmarked) [CBK024043C] | 98.5% |
| COc1cc2c(cc1OC)C(CCN1CCN(c3ccc(Cl)cc3)CC1)OCC(C)(C)C2 (centres unmarked) [CBK024051C] | 111% |
| CCOC(=O)c1cnn(-c2ccccc2)c1NS(=O)(=O)c1cccc(Cl)c1C [CBK024055] | 84.6% |
| O=C(CNC(=O)OCc1ccncc1)NCC(CCCN1CCC(c2ccccc2)CC1)(c1ccccc1)c1ccccc1 [CBK024060A] | 112% |
| CCCc1ncc(C[n+]2ccccc2C)c(N)n1 [CBK024255C] | 96.1% |
| CCC#CC(=O)Nc1ccccc1N1CCCNCC1 [CBK024291T] | 98.5% |
| Oc1ccc2nc(N[C@H]3CC4CCC3C4)sc2c1Cl (some centres unmarked) [CBK024348G] | 62.1% |
| COc1cc2c3c(cccc3c1)CC(C)(N(C)C)C2 (centres unmarked) [CBK024357C] | 105% |
| COC(=O)Nc1ccccc1N1CCN(CCCCN2CCN(c3ccccc3)C2=O)CC1 [CBK024372C] | 91.8% |
| Cc1cc(NS(=O)(=O)c2cccc(Cl)c2C)n[nH]1 [CBK024382] | 91.2% |

| SMILES | viability at 28.5 h, 10 µM |
| --- | --- |
| Cc1cc(=O)[nH]c(N/N=C/c2ccc(Cl)cc2Cl)n1 [CBK024387] | 95.8% |
| NCc1ccc(-c2nc3ccccc3[nH]2)nc1 [CBK024396C] | 87.7% |
| CC(=O)N1CCc2c(c3cccc(Br)c3n2Cc2ccccc2)C1 [CBK024402] | 93.9% |
| Cc1ccc(S(N)(=O)=O)cc1NC(=O)Cc1ccccc1 [CBK024413] | 86.7% |
| O=C(NCc1ccccc1OC1CCNC1)C1CCCO1 (centres unmarked) [CBK024503T] | 96.9% |
| COCCC(=O)NCc1ccccc1OC1CCNC1 (centres unmarked) [CBK024504T] | 136% |
| CS(=O)(=O)c1ccc(C(=O)N(Cc2ccccc2)c2ccc(S(=O)(=O)N3CCOC3=O)cc2)cc1 [CBK024590] | 110% |
| O=[N+]([O-])c1cc(S(=O)(=O)n2ccc3ccccc32)ccc1N1CCNCC1 [CBK024593C] | 91.2% |
| Nc1ncnc2c1ncn2C1OC(CO)C(O)C1O (centres unmarked) [CBK024679] | 92.6% |
| Nc1ccn(C2OC(CO)C(O)C2O)c(=O)n1 (centres unmarked) [CBK024684] | 108% |
| NC(=O)c1cccc(Cn2c3c(c4cccc(C(=O)O)c42)CCCCC3)c1 [CBK024834] | 98.6% |
| COc1ccccc1C(=O)N1CCN(C(=O)CN2CCCC2)CC1 [CBK024836] | 88.1% |
| Cc1ccc(C(=O)N2CCN(C(=O)CN3CCN(C)CC3)C2)cc1 [CBK024841C] | 76.4% |
| Cc1nc(Nc2ccc(Cl)cc2)nc(OC2CCNCC2)n1 [CBK024848] | 90.5% |
| Cc1ccc(S(N)(=O)=O)cc1N [CBK024851] | 109% |
| CN1CCC2CN(CCCC(c3ccc(F)cc3)c3ccc(F)cc3)CCN2C1=O (centres unmarked) [CBK024865C] | 89.9% |
| CCCCN1CCC2CN(CCCC(c3ccc(F)cc3)c3ccc(F)cc3)CCN2C1=O (centres unmarked) [CBK024880C] | 99.5% |
| CCN(C)C(=O)N1CCN(CCCC(c2ccc(F)cc2)c2ccc(F)cc2)CC1 [CBK024910C] | 90.6% |
| CCNC(=O)N1CCN(CCOC(c2ccc(F)cc2)c2ccc(F)cc2)CC1 [CBK024943C] | 95.6% |
| CCN1CCC2CN(CCCC(c3ccc(F)cc3)c3ccc(F)cc3)CCN2C1=O (centres unmarked) [CBK024996] | 92.7% |
| CCOC(=O)N1CCN(CCCCc2ccc(F)cc2)CC1 [CBK025002C] | 105% |
| CCC(=O)N1CCN(CCCC(=O)c2ccc(F)cc2)CC1 [CBK025017C] | 108% |

same assay, conditions: human, hela cells, % viability, bulk resorufin, single well

| SMILES | viability at 28.5 h, 10 µM |
| --- | --- |
| CCC(C(=O)c1c[nH]c2ccc(OC)cc12)N(C)C (centres unmarked) [CBK022923] | 96% |
| CCCC(=O)C1(c2ccccc2)CCNCC1 [CBK022936C] | 89.3% |
